From ChEMBL document CHEMBL1132888, “4,10-Dihydro-4-oxo-4H-imidazo[1,2-a]indeno[1,2-e]pyrazin-2-carboxylic acid derivatives: highly potent and selective AMPA receptors antagonists with in vivo activity” (Bioorg Med Chem Lett, 2000)
The source made the active and inactive calls. The calls are words filed in the database; no cut-off is given here.

How the values were obtained:
Mus musculus [1] = experiment: Effective dose of the intraperitoneally administered compound required to protect 50% of mice from tonic convulsion caused by maximal electric shock (MES); format: functional; settings: ip
Glutamate NMDA receptor = experiment: Displacement of [3H]DCKA from N-methyl-D-aspartate glutamate receptor of rat cortical membrane
[2] = target: Glutamate receptor ionotropic, AMPA (Rattus norvegicus, UniProt P19490+P19491+P19492+P19493)
Description: Displacement of [3H]AMPA from Ionotropic glutamate receptor AMPA of rat cortical membranes

[3] = target: Glutamate receptor ionotropic, kainate; settings: oocyte
Mus musculus [4] = experiment: Effective dose of the intraperitoneally administered compound required to protect 50% of DBA/2 mice from tonico-clonic convulsion; format: functional; settings: ip
[5] = target: Glutamate receptor ionotropic, kainate (Rattus norvegicus) (UniProt P22756+Q01812+P42260+P42264+Q63273); experiment: Inhibitory activity against generation of currents by 50 uM kainate in Xenopus oocytes injected with rat brain mRNA; format: functional, cell-based; settings: Oocyte
Mus musculus [6] = experiment: Compound tested for sound induced convulsions in DBA/2 mice following ip administration; Compound was active; format: functional, organism-based

Structure (SMILES) | ED50 (Mus musculus [1]) [mg/kg] | IC50 (Glutamate NMDA receptor) [µM] | IC50 [2] [nM] | IC50 [3] [nM] | ED50 (Mus musculus [4]) [mg/kg] | Kb [5] [nM] | Activity (Mus musculus [6])
Nc1ccc2c(c1)Cc1c-2nc(O)c2nc(C(=O)O)cn12 | 80 | 6.9 | 473 | 236 |  |  | 
CCOC(=O)c1cn2c3c(nc(O)c2n1)-c1ccc(F)cc1C3 | > 80 |  | 55 |  |  |  | 
O=C(O)c1cn2c3c(nc(O)c2n1)-c1ccc(F)cc1C3 | 56 | 0.455 | 60 | 25 |  |  | 
O=C(O)[C@@H]1C[C@H]2C[C@@H](CCc3nn[nH]n3)CC[C@H]2CN1 [TEZAMPANEL ANHYDROUS] | 4 |  |  | 230 |  |  | 
O=C(O)c1cn2c3c(nc(O)c2n1)-c1ccccc1C3 | 50 |  | 150 | 30 | 20 |  | 
CCOC(=O)c1cn2c3c(nc(O)c2n1)-c1ccccc1C3 | > 80 | 0.198 | 210 | 350 | > 80 |  | 
NC(=O)c1cn2c3c(nc(O)c2n1)-c1ccccc1C3 | > 80 | 0.73 | 476 | 1250 |  |  | 
O=c1[nH]c2cc(-n3ccnc3)c([N+](=O)[O-])cc2[nH]c1=O [YM-90K] | 12 |  |  | 260 | 15 |  | 
CN1CCCC12c1ccccc1-c1nc(O)c3nccn3c12 (racemic) | 17 |  |  | 890 |  |  | 
CNC(=O)Nc1ccc2c(c1)Cc1c-2nc(O)c2nc(C(=O)O)cn12 | 0.7 | 4.33 | 9 |  | 0.5 | 3.92 | Active
CNC(=O)Nc1ccc2c(c1)C(CC(=O)O)c1c-2nc(O)c2nccn12 (racemic) | 1 | 10 |  | 2 | 0.9 |  | 
Oc1nc2c(n3ccnc13)Cc1ccccc1-2 | 62 |  |  | 1800 |  |  | 
CCOC(=O)c1cn2c3c(nc(O)c2n1)-c1ccc(NC(=O)NC)cc1C3 | > 80 | 10 | 9 | 6 | > 20 |  | 
NS(=O)(=O)c1cccc2c1c([N+](=O)[O-])cc1nc(O)c(O)nc12 [NBQX] | 36 | > 10 |  |  | 13 |  | 
